Series [1] concerns the target human 5-HT6 receptor (Homo sapiens, UniProt P50406). Description: Radioligand binding assay, [3H]-LSD, HEK293 cell membranes.
Series [2] concerns the target human 5-HT7b receptor (Homo sapiens, UniProt P34969). Description: Radioligand binding assay, [3H]-5-CT, HEK293 cell membranes.
For series [3], the target named is T1, human 5-HT1A receptor (Homo sapiens, UniProt P08908).
T1 sequence (P08908 1-422): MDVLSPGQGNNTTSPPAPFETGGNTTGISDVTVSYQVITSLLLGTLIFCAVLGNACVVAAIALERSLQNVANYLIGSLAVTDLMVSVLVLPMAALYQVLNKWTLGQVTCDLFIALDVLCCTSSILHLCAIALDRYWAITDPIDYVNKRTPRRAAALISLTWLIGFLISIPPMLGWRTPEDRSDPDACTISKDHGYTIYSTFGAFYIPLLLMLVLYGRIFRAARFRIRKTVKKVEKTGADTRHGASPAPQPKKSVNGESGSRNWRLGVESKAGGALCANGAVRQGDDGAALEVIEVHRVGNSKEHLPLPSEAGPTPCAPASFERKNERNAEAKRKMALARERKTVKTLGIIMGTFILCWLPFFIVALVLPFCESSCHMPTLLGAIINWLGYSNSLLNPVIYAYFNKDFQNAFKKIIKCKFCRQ
Description: Radioligand binding assay, [3H]-8-OH-DPAT, HEK293 cell membranes.

In series [4] the target is human D2L receptor (Homo sapiens, UniProt P14416). In words: Radioligand binding assay, [3H]-raclopride, HEK293 cell membranes.

Counter-ions that a name gives are not always drawn.

By melting point is commonly meant the temperature, or range, at which the solid turns liquid. In general, Ki refers to a measure of affinity in units of concentration, obtained from inhibition or displacement.

Sequence of human D2L receptor (P14416 whole entry): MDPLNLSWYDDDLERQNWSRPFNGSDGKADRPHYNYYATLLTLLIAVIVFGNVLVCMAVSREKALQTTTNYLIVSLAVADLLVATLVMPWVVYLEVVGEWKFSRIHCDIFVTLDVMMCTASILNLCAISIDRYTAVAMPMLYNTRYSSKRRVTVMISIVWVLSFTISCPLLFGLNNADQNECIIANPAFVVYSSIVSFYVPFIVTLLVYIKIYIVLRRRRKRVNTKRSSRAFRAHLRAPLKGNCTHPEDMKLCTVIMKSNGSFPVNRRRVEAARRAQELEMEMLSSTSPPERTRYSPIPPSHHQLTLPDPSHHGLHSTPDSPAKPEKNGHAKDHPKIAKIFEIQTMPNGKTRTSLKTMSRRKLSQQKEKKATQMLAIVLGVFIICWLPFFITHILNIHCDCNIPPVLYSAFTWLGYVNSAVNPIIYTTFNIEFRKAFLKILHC
Sequence of human 5-HT6 receptor (P50406 whole entry): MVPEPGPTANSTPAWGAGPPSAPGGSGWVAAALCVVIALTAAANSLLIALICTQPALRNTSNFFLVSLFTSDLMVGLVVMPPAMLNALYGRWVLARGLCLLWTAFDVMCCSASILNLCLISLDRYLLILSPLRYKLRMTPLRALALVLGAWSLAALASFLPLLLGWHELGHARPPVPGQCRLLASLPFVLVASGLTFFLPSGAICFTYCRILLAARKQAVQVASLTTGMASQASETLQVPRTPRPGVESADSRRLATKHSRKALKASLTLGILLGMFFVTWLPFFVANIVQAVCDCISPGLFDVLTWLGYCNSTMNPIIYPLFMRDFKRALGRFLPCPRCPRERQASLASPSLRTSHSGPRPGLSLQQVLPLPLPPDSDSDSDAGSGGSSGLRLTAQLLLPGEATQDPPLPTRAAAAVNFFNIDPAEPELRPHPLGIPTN
Sequence of human 5-HT7b receptor (P34969 1-432 limits assumed): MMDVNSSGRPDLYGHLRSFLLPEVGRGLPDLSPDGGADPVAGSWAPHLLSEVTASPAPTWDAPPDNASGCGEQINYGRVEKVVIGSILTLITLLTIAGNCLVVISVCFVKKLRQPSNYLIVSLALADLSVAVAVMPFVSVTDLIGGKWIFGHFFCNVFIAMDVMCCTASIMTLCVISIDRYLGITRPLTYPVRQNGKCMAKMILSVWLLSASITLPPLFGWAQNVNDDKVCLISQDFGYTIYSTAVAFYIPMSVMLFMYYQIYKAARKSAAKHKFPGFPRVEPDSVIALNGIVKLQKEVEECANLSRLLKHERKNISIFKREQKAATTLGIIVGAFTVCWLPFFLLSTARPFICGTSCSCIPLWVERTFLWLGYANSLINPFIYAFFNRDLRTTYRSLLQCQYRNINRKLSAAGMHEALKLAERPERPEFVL

The compound `Cl.O=S(=O)(NCCCCN1CCN(c2cccc(Cl)c2)CC1)c1cc2ccccc2cn1` [Compound 2, N-(4-(4-(3-chlorophenyl)piperazin-1-yl)butyl)isoquinoline-3-sulfonamide hydrochloride] registered a melting point of 246 to 247 °C. In addition, the affinity in series [1], expressed as Ki, was 436 nM. In series [2], this compound registered an inhibition constant (Ki) of 49 nM. This compound also gave a Ki in series [3] of 38 nM. The same compound had a Ki in series [4] of 47 nM.
Consider `O=S(=O)(NCCCCN1CCN(c2ccccc2)CC1)c1cc2ccccc2cn1` (as salt: hydrochloride) [Compound 1, N-(4-(4-phenyl)piperazin-1-yl)butyl)isoquinoline-3-sulfonamide hydrochloride], for which the melting point lay in the range of 198 to 199 °C.
`Cc1cccc(N2CCN(CCCCNS(=O)(=O)c3cc4ccccc4cn3)CC2)c1C.Cl` [Compound 4, N-(4-(4-(2,3-dimethylphenyl)piperazin-1-yl)butyl)isoquinoline-3-sulfonamide hydrochloride] came in with a melting point of 215 to 216 °C. The compound further displayed a Ki in series [1] of 916 nM. The same compound gave a Ki in series [2] of 85 nM. The same compound gave a Ki in series [3] of 73 nM. For the same compound, in series [4], the Ki was 23 nM.
